Measured values as given in patent publication US6958156B2, “Isoflavone derivatives” (Vyrex Corporation, priority 2000, dated 2005).

Assays:
[1] = Non-enzymatic hydrolysis of genistein esters in aqueous buffer (HPLC); type: physicochemical; conditions: phosphate-buffered saline (0.1 M), pH 7.4, 37°, 10 days
Source text: By way of example, and not of limitation, several embodiments of the inventive subject matter have been prepared and characterized. These examples all fall within the group of pro-compounds where at least one of R7, R6, R5 and R4′ is H2PO4—, and HOOC—(CH2)x-COO— where x=2, 3, or 4. These new phosphate esters and hemiesters are all water soluble and readily hydrolyzed. They are also stable. In aqueous solutions of the exemplified compounds, for example, hydrolysis occurs to the extent of less than 1% per day, when stored at pH 7.4 and 37° C. Dry formulations of the same compounds appear to be indefinitely stable.
HPLC analysis was conducted using a Partisil ODS-3 column (9.5×250 mm), with methanol as the mobile phase, and UV detection at 260 nm.
A solution of genistein-7-phosphate (2.5 mg) in 5 ml of phosphate-buffered saline (0.1 M) at pH 7.4 was incubated at 37° for 10 days.
A solution of genistein-7-hemisuccinate (2.5 mg) in 5 ml of phosphate-buffered saline (0.1 M) at pH 7.4 was incubated at 37° for 10 days.

[2] = system: alkaline phosphatase type VII-S; test: Hydrolysis by alkaline phosphatase type VII-S; type: biochemical, bovine; conditions: 37° C., 0.5 DEA units in 1.0 ml 0.1M glycine buffer pH 10.4, initial substrate 1.07 mM
Procedure: (§1) In each of these experiments, free genistein was extracted with a 1:1 mixture of ethyl acetate and hexane, then analyzed by HPLC under the conditions described in example 5.
d) In alkaline phosphatase type VII-S at 37° C., the initial rate of hydrolysis to free genistein was 0.08% per minute.
This enzyme from bovine intestinal mucosa (Sigma cat no. P5521). 0.5 DEA units were dissolved in 1.0 ml of 0.1M glycine buffer pH 10.4, and the initial substrate concentration was 1.07 mM.

[3] = Hydrolysis of genistein-7-phosphate to free genistein in human blood; type: in vitro ADME; conditions: 37° C.
Procedure: as §1
b) In human blood (Sierra Biologicals) at 37° C., the half-life for hydrolysis to free genistein was about 6 hours.

[4] = Hydrolysis of genistein-7-phosphate to free genistein in human serum; type: in vitro ADME; conditions: 37° C.
Procedure: as §1
a) In human serum (Sierra Biologicals) at 37° C., the half-life for hydrolysis to free genistein was about 5 hours.

[5] = target: alkaline phosphatase type XXIV (Homo sapiens, UniProt P05187); test: Hydrolysis by alkaline phosphatase type XXIV; type: biochemical; conditions: 37° C.
Procedure: as §1
e) In alkaline phosphatase type XXIV at 37° C., the initial rate of hydrolysis to free genistein was 0.05% per minute.

[6] = Hydrolysis of genistein-7-phosphate to free genistein in rat blood; type: in vitro ADME; conditions: 37° C.
Procedure: as §1
c) In rat blood (Sierra Biologicals) at 37° C., the half-life for hydrolysis to free genistein was about 30 minutes.

[7] = Merck Index descriptions; cited from earlier work

alkaline phosphatase type XXIV, sequence (P05187 23-506): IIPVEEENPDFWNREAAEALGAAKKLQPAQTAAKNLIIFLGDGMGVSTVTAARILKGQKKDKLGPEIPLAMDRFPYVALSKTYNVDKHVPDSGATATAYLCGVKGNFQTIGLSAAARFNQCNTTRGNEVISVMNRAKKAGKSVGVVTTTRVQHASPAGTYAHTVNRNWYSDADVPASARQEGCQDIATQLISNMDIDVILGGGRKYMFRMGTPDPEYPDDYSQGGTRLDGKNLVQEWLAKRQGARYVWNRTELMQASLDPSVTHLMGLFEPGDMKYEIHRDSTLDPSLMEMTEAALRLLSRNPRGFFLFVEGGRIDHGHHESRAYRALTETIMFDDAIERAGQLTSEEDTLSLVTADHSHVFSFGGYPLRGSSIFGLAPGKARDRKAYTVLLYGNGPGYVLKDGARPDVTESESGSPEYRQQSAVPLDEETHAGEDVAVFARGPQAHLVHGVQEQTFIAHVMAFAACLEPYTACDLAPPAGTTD

In the case of `O=C(O)CCC(=O)Oc1cc(O)c2c(=O)c(-c3ccc(O)cc3)coc2c1` [genistein-7-hemisuccinate, Genistein-7-Hemisuccinate], the “conversion of the ester to free genistein” value [1] is reported as “about 4%”.

With `O=c1c(-c2ccc(O)cc2)coc2cc(OP(=O)(O)O)cc(O)c12` [genistein-7-phosphate, Genistein-7-Phosphate] the “initial rate of hydrolysis to free genistein” value [2] was 0.08 % per minute, the “free genistein found by HPLC after incubation” value [1] was “absence of free genistein” and the half-life [3] was ~6 h. The half-life [4] was ~5 h, the “initial rate of hydrolysis to free genistein” value [5] was 0.05 % per minute and the half-life [6] was ~0.5 h.

For `O=c1c(-c2ccc(O)cc2)coc2cc(O)cc(O)c12` [genistein], the solubility in water [7] is given as “very insoluble”.
